Like-named read-outs stand apart in the source and are kept apart here.
Key:
[1] = tested on: diabetic patients with grade 2 and grade 3 ulcers (Wagner classification); assay type: in vivo, human
Experimental: In order to assess the effect of sildenafil maleate in treatment of diabetic foot ulcers, a 12-week open-label longitudinal study was conducted to compare the conventional treatment and the conventional treatment with simultaneous administration of sildenafil maleate.
Diabetic patients with grade 2 and grade 3 ulcers were selected, according to Wagner classification and complying with the following inclusion and exclusion criteria:
Inclusion Criteria: • Male or female patients with type-2 Diabetes Mellitus • Age younger than 80 years • Grade-2 or -3 foot or leg ulcer, of any origin according to Wagner classification, without compromising tendons nor bone, with a progression time not higher than 3 months. • Presence or absence of localized infection • Without peripheral vascular obstruction
Exclusion Criteria • Type-1 Diabetes Mellitus patients • Grade-4 foot or leg ulcer according to Wagner classification or foot or knuckle necrosis • Peripheral vascular obstruction (ankle/arm index lower than 0.3) • Patients with creatinine higher than 1.2 mg/dL or blood urea nitrogen (BUN) higher than 50 • Transaminases 2 times above baseline • Microalbuminuria higher than 100
Patients who meet inclusion and exclusion criteria, who voluntarily accept to participate in the study and further signing a written consent, are randomly assigned to two study groups:
Group I: Conventional treatment
Group II: Conventional treatment with simultaneous administration of sildenafil maleate.
Patients are required to perform wound treatment and to register lesion progression.
Visit 1 • Signature of written consent • Physical examination • Petition of clinical lab examinations: complete blood count, glycosilated hemoglobin (HbA1c), total colesterol, total lipids, triglycerides, HDL-colesterol, urea, creatinine, microalbumina, aspartate aminotransferase (TGO), alanine aminotransferase (TGP), reactive, ultra-sensitive C-protein (PCR-u), urine test, pre and postprandial glycemia, lesion culture when required. • Conventional healing of lesion • Arterial Doppler request of affected limb • Provide treatment with antibiotics when necessary
Visit 2 (1 to 3 Days after Visit 1) • Interpretation of lab examination and Doppler study • Clinical/physical lesion examination • Patient inclusion/exclusion decision into the study • Random assignment of study groups • Registration of lesion characteristics (lesion photographs) • Assessment of metabolic control
Visit 3 (1 to 3 Days after Visit 2) • Registration of lesion progression (lesion photographs) • Assessment of patient's metabolic control • Delivery of corresponding medicaments (antibiotics and sildenafil maleate as applicable) • Registration de adverse events
Visit 4 Until Week 12 of Study (2 to 3 Times Per Week) • Registration of lesion progression (lesion photographs) • Registration de adverse events • Assessment of metabolic control
Visit 5 (1 to 5 Days after Final Visit) • Registration of lesion progression (lesion photographs) • Registration of adverse events • Compliance with study medication intake • Education for future lesion prevention
Wound treatment applied to all patients during each visit consists of cleaning with […] and distilled water, using sterile material; ointment MEBO® (Moist exposed Burn Treatment) was locally applied and dressing with sterile gauze when needed.
Study medication was delivered in accordance with the previously established protocol; compliance with medication intake and presence of adverse events was verified. Medication was suspended in case of showing any adverse effect, even a mild event associated with study medicament (sildenafil maleate).

[2] = cited from earlier work

Substance: sildenafil maleate
- effect on macro and microcirculation, granulation and healing of ulcers ([1]; 10-mg daily dose, oral, diabetic foot patients): improvement in macro and microcirculation
- recovery of patients with previous amputations ([1]; Group II patients who had previous amputations): total recovery
- blood flow and health status of lower limbs after end of treatment ([1]; Group II patients whose treatment concluded before the 12 weeks): kept an improvement in blood flow
- patients who obtained a satisfactory result (lesion healing) ([1]; Group II: conventional treatment with simultaneous sildenafil maleate): 100%
- adverse events ([1]; in vivo): did not experience adverse events
- side effects ([1]; in vivo, po): does not show side effects
- lower healing time than group with conventional treatment ([1]; patients with grade 2 ulcers): 20 days
- Average healing time (Group II) ([1]; ulcer grade 2 according to Wagner scale): 47 days
- Average healing time (Group II) ([1]; ulcer grade 3 according to Wagner scale): 81 days
- Average healing time (Group II) ([1]; ulcer grades 2 and 3 according to Wagner scale): 55 days
- decrease of recovery time ([1]; vs conventional treatment, regardless of ulcer grade and lesion area): about 20 days
- absorption compared with sildenafil citrate ([2]; in vivo): faster absorption
- bioequivalence with sildenafil citrate ([2]; in vivo): bioequivalent
- plasma protein binding ([2]; in vivo): mostly bound to plasma proteins
- delay of maximum peak ([2]; ingested during a high fat content meal): 60 min
- time to maximum concentration ([2]; oral administration, fasting subjects): 60 min
- distribution volume ([2]; stationary media (steady state)): 105 L

Reference: US20190183894A1, “METHOD OF TREATMENT OF DIABETIC FOOT ULCERS” (Malesil Research & Technology LLC, priority 2017, published 2019)
